ChEMBL document CHEMBL4265960, “Dithiocarbamates: Efficient metallo-β-lactamase inhibitors with good antibacterial activity when combined with meropenem” (Bioorg Med Chem Lett, 2018)
In brackets after ≈: the same amount, converted by molar mass. Activity calls are given as the source filed them. The calls are words filed in the database; no cut-off is given here.

Legend:
Proteus mirabilis [1] = assay: Inhibition of Proteus mirabilis NDM1 assessed as potentiation of meropenem-induced antibacterial activity by measuring meropenem MIC at 64 ug/ml after 16 to 18 hrs by broth microdilution method (reference value: 20 to 160 ug/ml)
Escherichia coli [2] = assay: Inhibition of Escherichia coli IMP4 assessed as potentiation of meropenem-induced bactericidal activity by measuring bacterial count at 8 times MIC incubated for 24 hrs followed by replating on agar plates and further incubated for 16 to 18 hrs measured for 24 hrs by time kill assay
Escherichia coli [3] = assay: Inhibition of Escherichia coli IMP4 assessed as potentiation of meropenem-induced antibacterial activity by measuring zone of inhibition at 10 uL after 16 to 18 hrs by disc diffusion method (reference value: 9.8 +/- 0.6 millimeter)
[4] = target: T1, Metallo-beta-lactamase NDM-4 (Escherichia coli) (UniProt H6WZS9); assay: Inhibition of Escherichia coli NDM4 assessed as potentiation of meropenem-induced antibacterial activity by measuring zone of inhibition at 10 uL after 16 to 18 hrs by disc diffusion method (reference value: 9.6 +/- 0.5 millimeter)
T1 sequence (whole entry): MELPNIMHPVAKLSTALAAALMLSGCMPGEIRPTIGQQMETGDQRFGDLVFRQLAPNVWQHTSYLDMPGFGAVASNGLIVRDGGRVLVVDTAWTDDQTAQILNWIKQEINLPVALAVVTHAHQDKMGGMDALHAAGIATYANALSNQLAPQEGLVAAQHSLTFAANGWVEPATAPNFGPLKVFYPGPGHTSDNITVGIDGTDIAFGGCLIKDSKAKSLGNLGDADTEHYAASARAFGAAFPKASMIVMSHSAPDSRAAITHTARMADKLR

[5] = target: Metallo-beta-lactamase type 2 (Klebsiella pneumoniae) (UniProt C7C422)
Description: Inhibition of Klebsiella pneumoniae NDM1 assessed as potentiation of meropenem-induced antibacterial activity by measuring meropenem MIC at 64 ug/ml after 16 to 18 hrs by broth microdilution method (Rvb = 40 to 80 ug/ml)

Escherichia coli [6] = assay: Inhibition of Escherichia coli IMP4 assessed as potentiation of meropenem-induced antibacterial activity by measuring meropenem MIC at 64 ug/ml after 16 to 18 hrs by broth microdilution method (reference value: 20 to 160 ug/ml)
HeLa [7] = assay: Cytotoxicity against human HeLa cells after 24 hrs by CCK8 assay; assay type: cell-based
Proteus mirabilis [8] = assay: Inhibition of Proteus mirabilis NDM1 assessed as potentiation of meropenem-induced antibacterial activity by measuring fold reduction in meropenem MIC at 64 ug/ml after 16 to 18 hrs by broth microdilution method relative to meropenem alone
[9] = target: Beta-lactamase (Klebsiella pneumoniae) (UniProt Q4LDF1)
Description: Inhibition of Klebsiella pneumoniae IMP4 assessed as potentiation of meropenem-induced antibacterial activity by measuring meropenem MIC at 64 ug/ml after 16 to 18 hrs by broth microdilution method (Rvb = 20 to 40 ug/ml)

Escherichia coli [10] = assay: Toxicity against Escherichia coli harboring NDM1 after 16 to 18 hrs by broth microdilution method; assay type: organism-based
[11] = target: Beta-lactamase NDM-1 (Escherichia coli) (UniProt E5KIY2)
Description: Inhibition of Escherichia coli NDM1 assessed as potentiation of meropenem-induced antibacterial activity by measuring meropenem MIC at 64 ug/ml after 16 to 18 hrs by broth microdilution method (Rvb = 10 to 320 ug/ml)

Erythrocyte = assay: Hemolytic activity against sheep RBC at 1.953 to 1000 ug/ml after 1 hr; assay type: ADME, cell-based, Ovis aries
Escherichia coli [12] = assay: Toxicity against Escherichia coli harboring IMP4 assessed as reduction in bacterial growth after 16 to 18 hrs by broth microdilution method; assay type: organism-based
HeLa [13] = assay: Cytotoxicity against human HeLa cells at 32 ug/ml after 24 hrs by calcein-AM/propidium iodide staining based fluorescence microscopic analysis; assay type: cell-based
Escherichia coli [14] = assay: Inhibition of Escherichia coli IMP4 assessed as potentiation of meropenem-induced bactericidal activity by measuring reduction in bacterial colonies at 4 to 8 times MIC incubated for 3 hrs followed by replating on agar plates and further incubated for 16 to 18 hrs measured for 24 hrs by time kill assay
Escherichia coli [15] = assay: Inhibition of Escherichia coli IMP4 assessed as potentiation of meropenem-induced bactericidal activity by measuring reduction in bacterial colonies at 8 times MIC incubated up to 3 hrs followed by replating on agar plates and further incubated for 16 to 18 hrs measured for 24 hrs by time kill assay
Citrobacter freundii [16] = assay: Inhibition of Citrobacter freundii NDM1 assessed as potentiation of meropenem-induced antibacterial activity by measuring meropenem MIC at 64 ug/ml after 16 to 18 hrs by broth microdilution method (reference value: 20 ug/ml)
Escherichia coli [17] = assay: Inhibition of Escherichia coli IMP4 assessed as potentiation of meropenem-induced bactericidal activity by measuring bacterial count at 4 times MIC incubated for 8 hrs followed by replating on agar plates and further incubated for 16 to 18 hrs measured for 24 hrs by time kill assay
Escherichia coli [18] = assay: Inhibition of Escherichia coli IMP4 assessed as potentiation of meropenem-induced antibacterial activity by measuring reduction in bacterial growth at 64 ug/ml after 16 to 18 hrs in presence of ZnCl2 by broth microdilution method
[19] = target: Beta-lactamase NDM-1 (Escherichia coli) (UniProt E5KIY2); remark: listed apart in the source
Description: Inhibition of Escherichia coli NDM1 assessed as potentiation of meropenem-induced bactericidal activity by measuring meropenem MBC after 20 to 24 hrs in presence of 50% blood

Escherichia coli [20] = assay: Inhibition of Escherichia coli IMP4 assessed as potentiation of meropenem-induced antibacterial activity by measuring bacterial growth at 64 ug/ml after 16 to 18 hrs by broth microdilution method (reference value: 93.43 +/- 2.12%); design: scale not given: the % may be the effect or the level left
Citrobacter freundii [21] = assay: Inhibition of Citrobacter freundii NDM1 assessed as potentiation of meropenem-induced antibacterial activity by measuring fold reduction in meropenem MIC at 64 ug/ml after 16 to 18 hrs by broth microdilution method relative to meropenem alone
Escherichia coli [22] = assay: Inhibition of Escherichia coli IMP4 assessed as potentiation of meropenem-induced bactericidal activity by measuring bacterial count at 4 times MIC incubated for 24 hrs followed by replating on agar plates and further incubated for 16 to 18 hrs measured for 24 hrs by time kill assay
Escherichia coli [23] = assay: Inhibition of Escherichia coli IMP4 assessed as potentiation of meropenem-induced bactericidal activity by measuring reduction in bacterial colonies at 8 times MIC incubated up to 8 hrs followed by replating on agar plates and further incubated for 16 to 18 hrs measured for 24 hrs by time kill assay
[24] = target: Beta-lactamase NDM-1 (Escherichia coli) (UniProt E5KIY2); remark: listed apart in the source
Description: Inhibition of Escherichia coli NDM1 assessed as potentiation of meropenem-induced bactericidal activity by measuring meropenem MBC after 20 to 24 hrs in presence of 50% serum

Row | Compound | MIC (Proteus mirabilis [1]) | inhibition zone (IZ) (Escherichia coli [3]) | inhibition zone (IZ) [4] | MIC [5] | MIC (Escherichia coli [6]) | MIC [9] | MIC [11] | MIC (Citrobacter freundii [16]) | further results
1 | S=C([S-])N1CCCC1.[Na+] | 2 to 8 mg/L | 22.8 mm | 22.1 mm | < 0.0312 mg/L | < 16 mg/L | < 0.0312 mg/L | 2 mg/L | – | Activity (Escherichia coli [2]): 9 to 10 log10CFU/ml; IC50 (HeLa [7]): 349 mg/L; fold change (FC) (Proteus mirabilis [8]): < 320; MIC (Escherichia coli [10]): > 128 mg/L; Activity (Erythrocyte): Non-Toxic; Activity (Escherichia coli [12]): Non-Toxic; Activity (HeLa [13]): Non-Toxic
2 | O=C(O)CN1CCN(CC(=O)O)CCN(CC(=O)O)CC1 | – | 20.3 mm | 22.9 mm | – | – | – | – | – | Activity (Escherichia coli [14]): Active
3 | CCN(CC)C(=S)[S][Na] [DITIOCARB SODIUM] | – | – | – | – | – | – | – | – | MIC (Escherichia coli [10]): > 128 mg/L; Activity (Erythrocyte): Non-Toxic; Activity (Escherichia coli [12]): Non-Toxic; Activity (HeLa [13]): Non-Toxic
4 | CCN(CC)C(=S)[S-].[Na+] [DITIOCARB SODIUM] | 0.5 to 4 mg/L | 17.2 mm | 18.9 mm | < 2 mg/L | < 16 mg/L | < 2 mg/L | 1 to 16 mg/L | < 0.0312 mg/L | Activity (Escherichia coli [15]): Active; IC50 (HeLa [7]): > 1280 mg/L; Activity (Escherichia coli [17]): 3 to 4 log10CFU/ml
5 | CCCCCCCCCCCCCCNC(=S)S | inactive | inactive | inactive | inactive | inactive | inactive | inactive | inactive | –
6 | S=C([S-])N1CCCCC1.[Na+] | 4 to 16 mg/L | 24.2 mm | 23.9 mm | < 0.0312 mg/L | < 16 mg/L | < 0.0312 mg/L | 0.25 mg/L | – | Activity (Escherichia coli [18]): inactive; MBC [19]: 1 mg/L; Activity (Escherichia coli [20]): 3.55%; fold change (FC) (Citrobacter freundii [21]): < 320; IC50 (HeLa [7]): 634 mg/L; Activity (Escherichia coli [22]): 1 to 2 log10CFU/ml; fold change (FC) (Proteus mirabilis [8]): < 320; MIC (Escherichia coli [10]): > 128 mg/L; Activity (Escherichia coli [23]): Active; Activity (Erythrocyte): Non-Toxic; MBC [24]: < 0.0312 mg/L; Activity (Escherichia coli [12]): Non-Toxic; Activity (HeLa [13]): Non-Toxic
7 | S=C(S)N1CCN(C(=S)S)CC1 | 4 to 8 mg/L | inactive | inactive | 4 to 16 mg/L (≈ 16.8 to 67.1 µM) | 4 to 16 mg/L | 8 to 16 mg/L (≈ 33.6 to 67.1 µM) | 8 to 16 mg/L (≈ 33.6 to 67.1 µM) | 2 mg/L | –
8 | CCCCCCCCN(CCCCCCCC)C(=S)S | 2 to 4 mg/L | inactive | inactive | 1 to 8 mg/L (≈ 3.15 to 25.2 µM) | 1 to 8 mg/L | < 1 mg/L | 4 to 16 mg/L (≈ 12.6 to 50.4 µM) | 4 mg/L | –
9 | CCCCCCN(CCCCCC)C(=S)S | 8 to 16 mg/L | inactive | inactive | 8 to 16 mg/L (≈ 30.6 to 61.2 µM) | 4 to 16 mg/L | 16 mg/L (≈ 61.2 µM) | 8 mg/L (≈ 30.6 µM) | 8 mg/L | –
10 | S=C(S)N1CCOCC1 | 16 mg/L | – | – | 4 to 16 mg/L (≈ 24.5 to 98 µM) | 2 to 16 mg/L | 8 to 16 mg/L (≈ 49 to 98 µM) | 8 mg/L (≈ 49 µM) | 2 mg/L | –
11 | CCCCCCNC(=S)S | 0.25 mg/L | inactive | inactive | inactive | 2 to 16 mg/L | 16 mg/L (≈ 90.2 µM) | 16 mg/L (≈ 90.2 µM) | inactive | –
